Test results: ChEMBL document CHEMBL1201862, “PubChem BioAssay data set” (2004)
Activity calls are given as the source filed them.

Legend:
[1] = Late stage assay provider results from the probe development effort to identify inhibitors of the Plasmodium falciparum M18 Aspartyl Aminopeptidase (M18AAP): radiolabel-based cell-based dose response assay to identify compounds that inhibit P. falciparum growth in RBCs, Set 2..; format: functional
[2] = ATP-based viability loss in HepG2 cells – cell-based, CellTiter-Glo luminescence, dry powder, set 3, cytotoxicity control, dose response (AID 720594); format: functional
[3] = ATP-based viability loss in HEK293T cells – cell-based, CellTiter-Glo luminescence, dry powder, set 2, cytotoxicity control, dose response (AID 720595); format: functional; conditions: HEK293
[4] = Counterscreen for inhibitors of Trypanosoma brucei methionyl tRNA synthetase (MetRS): Luminescence-based cell-based high throughput dose response assay to identify compounds that are cytotoxic to Jurkat human T lymphocyte cells.; format: functional
[5] = biological target: T1, Methionyl-tRNA synthetase, putative (Trypanosoma brucei brucei, UniProt Q38C91); format: functional, Trypanosoma brucei brucei strain 927/4 GUTat10.1
T1 sequence (Q38C91 whole entry): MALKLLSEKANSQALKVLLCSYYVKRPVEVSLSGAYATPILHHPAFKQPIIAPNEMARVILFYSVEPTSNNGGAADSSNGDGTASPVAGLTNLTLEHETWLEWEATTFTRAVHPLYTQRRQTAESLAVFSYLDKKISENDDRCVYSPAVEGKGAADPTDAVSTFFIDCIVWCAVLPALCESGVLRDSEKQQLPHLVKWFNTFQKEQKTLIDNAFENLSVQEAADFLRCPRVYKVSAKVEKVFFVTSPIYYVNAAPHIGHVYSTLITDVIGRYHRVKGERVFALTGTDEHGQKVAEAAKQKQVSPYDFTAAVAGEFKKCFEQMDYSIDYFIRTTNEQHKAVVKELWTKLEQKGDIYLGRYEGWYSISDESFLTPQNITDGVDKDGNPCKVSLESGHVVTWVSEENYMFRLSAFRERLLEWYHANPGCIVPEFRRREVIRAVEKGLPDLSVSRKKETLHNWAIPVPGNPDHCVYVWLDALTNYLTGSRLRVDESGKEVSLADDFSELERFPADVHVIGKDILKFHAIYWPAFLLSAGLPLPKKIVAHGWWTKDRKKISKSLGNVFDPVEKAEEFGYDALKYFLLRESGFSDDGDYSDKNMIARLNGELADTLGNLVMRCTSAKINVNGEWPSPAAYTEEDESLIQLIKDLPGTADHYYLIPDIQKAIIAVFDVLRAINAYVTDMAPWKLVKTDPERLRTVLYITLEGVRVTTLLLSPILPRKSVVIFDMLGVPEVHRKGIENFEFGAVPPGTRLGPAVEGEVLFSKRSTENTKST

[6] = biological target: T1, Methionyl-tRNA synthetase, putative; format: functional, Trypanosoma brucei brucei strain 927/4 GUTat10.1; remark: listed apart in the source
[7] = Late stage counterscreen for inhibitors of Trypanosoma brucei methionyl tRNA synthetase (MetRS): Luminescence-based cell-based high throughput dose response assay to identify compounds that are cytotoxic to Jurkat human T lymphocyte cells.; format: functional
[8] = Luminescence-based cell-based high throughput dose response assay to identify activators of the DAF-12 from the parasite S. stercoralis (ssDAF-12).; format: functional
Protein skinhead-1 = biological target: T2, Protein skinhead-1 (Caenorhabditis elegans, UniProt P34707); format: functional
T2 sequence (P34707 whole entry): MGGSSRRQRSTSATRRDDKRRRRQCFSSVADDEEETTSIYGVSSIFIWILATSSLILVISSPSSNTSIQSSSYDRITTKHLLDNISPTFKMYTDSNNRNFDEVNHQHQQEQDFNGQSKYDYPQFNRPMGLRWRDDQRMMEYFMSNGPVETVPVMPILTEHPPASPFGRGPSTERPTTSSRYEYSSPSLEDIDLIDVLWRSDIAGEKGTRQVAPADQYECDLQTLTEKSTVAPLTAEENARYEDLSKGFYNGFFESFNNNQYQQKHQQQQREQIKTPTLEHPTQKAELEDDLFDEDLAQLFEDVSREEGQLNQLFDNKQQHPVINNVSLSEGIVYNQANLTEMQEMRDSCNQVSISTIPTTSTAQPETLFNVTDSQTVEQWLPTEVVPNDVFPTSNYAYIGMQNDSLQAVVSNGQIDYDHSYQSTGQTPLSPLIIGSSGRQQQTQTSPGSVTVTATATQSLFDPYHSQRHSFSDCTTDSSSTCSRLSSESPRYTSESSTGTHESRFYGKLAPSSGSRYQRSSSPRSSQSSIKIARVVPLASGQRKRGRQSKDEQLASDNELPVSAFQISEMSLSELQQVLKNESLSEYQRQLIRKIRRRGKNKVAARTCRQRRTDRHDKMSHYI

[9] = biological target: T3, Oxysterols receptor LXR-beta (Homo sapiens, UniProt P55055); format: functional, cell-based;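 note: agonist activity at LXR measured by a cell-based luminescence readout across a dose range, run as a counterscreen for daf-12 agonists; potency for activation of Gal4-LXR reporter so compounds are agonists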
T3 sequence (P55055 whole entry): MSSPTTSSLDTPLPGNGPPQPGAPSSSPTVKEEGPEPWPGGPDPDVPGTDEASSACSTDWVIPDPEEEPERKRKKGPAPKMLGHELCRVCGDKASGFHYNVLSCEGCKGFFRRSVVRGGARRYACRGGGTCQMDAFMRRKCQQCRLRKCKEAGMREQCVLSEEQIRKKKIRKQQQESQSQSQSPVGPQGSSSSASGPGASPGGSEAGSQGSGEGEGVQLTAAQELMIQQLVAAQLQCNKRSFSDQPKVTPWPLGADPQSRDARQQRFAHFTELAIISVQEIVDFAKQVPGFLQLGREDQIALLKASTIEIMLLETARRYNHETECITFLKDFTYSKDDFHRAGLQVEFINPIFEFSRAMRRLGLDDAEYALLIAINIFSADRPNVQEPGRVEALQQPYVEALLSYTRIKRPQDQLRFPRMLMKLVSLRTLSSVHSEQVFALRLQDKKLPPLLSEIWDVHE

[10] = biological target: G-protein coupled receptor 55 (Homo sapiens, UniProt Q9Y2T6); experiment: selective activators of receptor GPR55 – imaging, U2OS cells, beta-arrestin-GFP redistribution, primary screen (AID 1961); format: functional
G-protein coupled receptor 55, sequence (Q9Y2T6 whole entry, the tested form may be a part): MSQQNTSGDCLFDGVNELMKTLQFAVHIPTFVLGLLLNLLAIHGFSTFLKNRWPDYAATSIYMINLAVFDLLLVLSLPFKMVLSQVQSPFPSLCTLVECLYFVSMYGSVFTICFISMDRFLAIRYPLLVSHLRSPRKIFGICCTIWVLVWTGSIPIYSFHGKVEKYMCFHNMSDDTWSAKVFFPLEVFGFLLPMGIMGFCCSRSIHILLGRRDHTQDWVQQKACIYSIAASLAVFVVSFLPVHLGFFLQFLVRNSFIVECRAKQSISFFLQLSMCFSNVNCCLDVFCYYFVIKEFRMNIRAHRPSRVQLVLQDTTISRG

[11] = biological target: T3, Oxysterols receptor LXR-beta; experiment: LXR agonists, Gal4 luciferase reporter, dose response, counter-screen for ssDAF-12 agonist project, cell-based, luminescence, HEK293, S. stercoralis campaign (AID 720737); format: functional; conditions: read-out: IC50 (the source's name)
[12] = biological target: T4, Corticotropin-releasing factor receptor 2/Corticotropin-releasing factor-binding protein (Homo sapiens, UniProt P24387+Q13324); experiment: Dose Response confirmation of uHTS hits for small molecule antagonists of the CRF-binding protein and CRF-R2 receptor complex.; format: functional; conditions: read-out: IC50_Mean
T4 sequence (Q13324 whole entry): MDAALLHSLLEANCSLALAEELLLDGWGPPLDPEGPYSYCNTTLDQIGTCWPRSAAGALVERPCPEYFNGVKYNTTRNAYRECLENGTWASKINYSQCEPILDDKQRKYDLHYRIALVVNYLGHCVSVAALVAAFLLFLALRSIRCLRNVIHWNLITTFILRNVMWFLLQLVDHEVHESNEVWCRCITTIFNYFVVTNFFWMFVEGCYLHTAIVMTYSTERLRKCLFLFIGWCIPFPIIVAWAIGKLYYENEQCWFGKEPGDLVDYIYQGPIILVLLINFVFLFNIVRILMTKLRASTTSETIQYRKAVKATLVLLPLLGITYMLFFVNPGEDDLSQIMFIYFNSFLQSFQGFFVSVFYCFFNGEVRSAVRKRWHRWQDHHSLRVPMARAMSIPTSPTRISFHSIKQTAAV
T4 sequence (P24387 whole entry): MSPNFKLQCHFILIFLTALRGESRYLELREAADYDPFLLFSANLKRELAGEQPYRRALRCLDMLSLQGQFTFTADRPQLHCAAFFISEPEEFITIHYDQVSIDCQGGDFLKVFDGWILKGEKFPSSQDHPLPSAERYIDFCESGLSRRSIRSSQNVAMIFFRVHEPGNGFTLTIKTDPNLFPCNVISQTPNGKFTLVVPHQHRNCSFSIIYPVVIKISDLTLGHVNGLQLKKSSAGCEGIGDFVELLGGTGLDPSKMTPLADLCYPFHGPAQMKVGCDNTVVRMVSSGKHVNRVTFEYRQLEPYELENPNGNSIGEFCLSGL

[13] = viability loss in Vero cells – cytotoxicity control for Vif-APOBEC3G degradation inhibitor project, dose response (AID 1117358); format: functional; conditions: Vero
[14] = biological target: T4, Corticotropin-releasing factor receptor 2/Corticotropin-releasing factor-binding protein; experiment: activators of CRF receptor 2 with binding protein – uHTS hits, confirmation (AID 602473); format: functional; conditions: read-out: EC50_Mean

Question: With COc1ccc(CCNC2CCN(Cc3ccccc3)CC2)cc1OC as the compound, how does the IC50 [1] read?
Answer: Its IC50 is 6.9 µM (active).

Question: With CC1CCN(S(=O)(=O)c2ccc(C(=O)Nc3nnc(C4=COCCO4)o3)cc2)CC1 as the compound, how does the AC50 [2] read?
Answer: The AC50 was > 52 µM (inactive).

Question: What about the AC50 [3] of the same compound?
Answer: The AC50 was 48.7 µM (active).

Question: For O=C(Nc1ccc(F)c(Cl)c1)C1CC(=O)n2c(nc3ccccc32)N1 (stereo not given), which IC50 [4] is on record?
Answer: The IC50 was 83.3 µM (inactive).

Question: And the IC50 [5]?
Answer: The IC50 was 1.47 µM (active).

Question: What about the IC50 [6] of the same compound?
Answer: Its IC50 is 2.34 µM (active).

Question: What about the IC50 [7] of the same compound?
Answer: Its IC50 is > 83.3 µM (inactive).

Question: With N=C(NOC(=O)c1cc(Br)ccc1Cl)c1ccccn1 as the compound, how does the IC50 [8] read?
Answer: Its IC50 is > 67.5 µM (inactive).

Question: And the IC50 (Protein skinhead-1)?
Answer: Its IC50 is 41.8 µM (active).

Question: And the EC50 [9]?
Answer: The EC50 was > 67.5 µM (inactive).

Question: What about the EC50 [10] of the same compound?
Answer: The EC50 was 31.4 µM (inactive).

Question: What about the EC50 [11] of the same compound?
Answer: Its EC50 is > 67.5 µM (inactive).

Question: Which IC50 [12] does the source give for O=C1CSC(c2nn(-c3ccccc3)cc2-c2cc3ccccc3oc2=O)N1Cc1ccco1 (stereo not given) here?
Answer: The IC50 was 19.2 µM (active).

Question: What about the CC50 [13] of the same compound?
Answer: Its CC50 is > 40 µM (active).

Question: What about the EC50 [14] of the same compound?
Answer: The EC50 was > 53 µM (inactive).
